Tests used:
[1] = Antiproliferative activity against wild type human A431 cells after 48 hrs by MTT assay; type: functional, cell-based; details: A-431, 48 h
[2] = Antiproliferative activity against human A549 cells harboring K-ras mutation after 48 hrs by MTT assay; type: functional, cell-based; details: A549, 48 h
[3] = molecular target: Epidermal growth factor receptor (Homo sapiens, UniProt P00533); type: ADME, cell-based, Sf9
Description: Inhibition of human recombinant N-terminal GST-tagged wild type EGFR cytoplasmic domain (695 end residues) autophosphorylation expressed in baculovirus infected Sf9 insect cells by ADP-Glo luminescence assay

[4] = Antiproliferative activity against NHBE cells after 48 hrs by MTT assay; type: ADME, cell-based; details: Homo sapiens
[5] = cells; type: functional, cell-based; details: Homo sapiens, NCI-H1975, 48 h
[6] = human
[7] = molecular target: Epidermal growth factor receptor (Homo sapiens, UniProt P00533, L858R/T790M); experiment: biochemical; type: cell-based, Sf9
[8] = tested on: NCI-H1975; experiment: Induction of apoptosis in human NCI-H1975 cells harboring L858R/T790M double mutant after 48 hrs by annexin V-FITC/PI staining based flow cytometric analysis; type: functional, cell-based
[9] = tested on: NCI-H1975; experiment: Induction of apoptosis in human NCI-H1975 cells harboring L858R/T790M double mutant assessed as early apoptotic cells at 200 nM after 48 hrs by annexin V-FITC/PI staining based flow cytometric analysis (reference value: 2%); type: functional
[10] = tested on: Epidermal growth factor receptor (Homo sapiens), P00533 [L858R,T790M]; experiment: Potency index, ratio of rociletinib IC50 to compound IC50 for human recombinant N-terminal GST-tagged EGFR T790M/L858R double mutant cytoplasmic domain (695 end residues) autophosphorylation expressed in baculovirus infected Sf9 insect cells
[11] = tested on: NCI-H1975; experiment: Induction of apoptosis in human NCI-H1975 cells harboring L858R/T790M double mutant assessed as late apoptotic cells at 500 nM after 48 hrs by annexin V-FITC/PI staining based flow cytometric analysis (reference value: 3.4%); type: functional
[12] = tested on: NCI-H1975; experiment: Induction of apoptosis in human NCI-H1975 cells harboring L858R/T790M double mutant assessed as viable cells at 200 nM after 48 hrs by annexin V-FITC/PI staining based flow cytometric analysis (reference value: 94.2%); type: functional; details: NCI-H1975, 48 h, read-out: Activity
[13] = tested on: NCI-H1975; experiment: Induction of apoptosis in human NCI-H1975 cells harboring L858R/T790M double mutant assessed as viable cells at 50 nM after 48 hrs by annexin V-FITC/PI staining based flow cytometric analysis (reference value: 94.2%); type: functional; details: NCI-H1975, 48 h, read-out: Activity
[14] = tested on: NCI-H1975; experiment: Induction of apoptosis in human NCI-H1975 cells harboring L858R/T790M double mutant assessed as late apoptotic cells at 200 nM after 48 hrs by annexin V-FITC/PI staining based flow cytometric analysis (reference value: 3.4%); type: functional
[15] = tested on: NCI-H1975; experiment: Induction of apoptosis in human NCI-H1975 cells harboring L858R/T790M double mutant assessed as early apoptotic cells at 500 nM after 48 hrs by annexin V-FITC/PI staining based flow cytometric analysis (reference value: 2%); type: functional
[16] = tested on: NCI-H1975; experiment: Induction of apoptosis in human NCI-H1975 cells harboring L858R/T790M double mutant assessed as necrotic cells at 200 nM after 48 hrs by annexin V-FITC/PI staining based flow cytometric analysis (reference value: 0.4%); type: functional
[17] = tested on: NCI-H1975; experiment: Induction of apoptosis in human NCI-H1975 cells harboring L858R/T790M double mutant assessed as late apoptotic cells at 50 nM after 48 hrs by annexin V-FITC/PI staining based flow cytometric analysis (reference value: 3.4%); type: functional
[18] = tested on: NCI-H1975; experiment: Induction of apoptosis in human NCI-H1975 cells harboring L858R/T790M double mutant assessed as necrotic cells at 500 nM after 48 hrs by annexin V-FITC/PI staining based flow cytometric analysis (reference value: 0.4%); type: functional
[19] = tested on: NCI-H1975; experiment: Induction of apoptosis in human NCI-H1975 cells harboring L858R/T790M double mutant assessed as early apoptotic cells at 50 nM after 48 hrs by annexin V-FITC/PI staining based flow cytometric analysis (reference value: 2%); type: functional
[20] = tested on: NCI-H1975; experiment: Induction of apoptosis in human NCI-H1975 cells harboring L858R/T790M double mutant assessed as viable cells at 500 nM after 48 hrs by annexin V-FITC/PI staining based flow cytometric analysis (reference value: 94.2%); type: functional; details: NCI-H1975, 48 h, read-out: Activity
[21] = tested on: NCI-H1975; experiment: Potency index, ratio of gefitinib IC50 to compound IC50 against human NCI-H1975 cells harboring L858R/T790M double mutant; type: functional
[22] = tested on: NCI-H1975; experiment: Induction of apoptosis in human NCI-H1975 cells harboring L858R/T790M double mutant assessed as necrotic cells at 50 nM after 48 hrs by annexin V-FITC/PI staining based flow cytometric analysis (reference value: 0.4%); type: functional

Row | SMILES | IC50 [1] [nM] | IC50 [2] [nM] | IC50 [3] [nM] | IC50 [4] [nM] | IC50 [5] [nM] | IC50 [6] [nM] | IC50 [7] [nM] | other results
1 | C=CC(=O)Nc1cccc(Nc2nc(Nc3ccc(OCCn4ccnc4)cc3)ncc2F)c1 | 2480 | 8370 | > 1000 | 40000 | 1810 | > 110 | 9.1 | 
2 | C=CC(=O)Nc1cccc(Nc2nc(Nc3ccc(N4CCN(C(C)=O)CC4)cc3OC)ncc2C(F)(F)F)c1 [ROCILETINIB] | 1290 | 6500 |  | > 40000 | 137 | 21.4 |  | 
3 | C=CC(=O)Nc1cccc(Nc2nc(Nc3ccc(Cn4ccnc4)cc3OC)ncc2Cl)c1 | 6780 | 14300 | 506 | > 40000 | 932 | 4.64 | 109 | 
4 | C=CC(=O)Nc1cccc(Nc2nc(Nc3ccc(-n4ccnc4)cc3)ncc2[N+](=O)[O-])c1 | 12400 | > 40000 | > 1000 | > 40000 | 12600 | > 10.2 | 98.2 | 
5 | C=CC(=O)Nc1cccc(Nc2nc(Nc3ccc(Cn4ccnc4)cc3)ncc2Cl)c1 | 733 | 2730 | 1000 | > 40000 | 118 | 299 | 3.3 | Activity [8]: Dose-dependent effect; Activity [9]: 24.3%; Ratio IC50 [10]: 8; Activity [11]: 3.7%; viability at 0.2 µM [12]: 71.3%; viability at 0.05 µM [13]: 81%; Activity [14]: 4.2%; Activity [15]: 56.7%; Activity [16]: 0.1%; Activity [17]: 2.6%; Activity [18]: 0.1%; Activity [19]: 16.3%; viability at 0.5 µM [20]: 39.6%; Ratio IC50 [21]: 10; Activity [22]: 0.1%
6 | C=CC(=O)Nc1cccc(Nc2nc(Nc3ccc(NC(=O)Cn4ccnc4)cc3)ncc2[N+](=O)[O-])c1 | 16200 | > 40000 |  | > 40000 | 11500 | > 8.43 |  | 
7 | C=CC(=O)Nc1cccc(Nc2nc(Nc3ccc(Cn4ccnc4)cc3)ncc2F)c1 | 152 | 3560 | 987 | > 40000 | 1720 | 110 | 9 | 
8 | C=CC(=O)Nc1cccc(Nc2nc(Nc3ccc(OCCn4cncn4)cc3)ncc2Cl)c1 | 5950 | 10900 | > 1000 | > 40000 | 2370 | > 9.67 | 103 | 
9 | C=CC(=O)Nc1cccc(Nc2nc(Nc3ccc(OCCn4ccnc4)cc3)ncc2Cl)c1 | 1340 | 8440 | > 1000 | 39200 | 391 | > 9.43 | 106 | 
10 | C=CC(=O)Nc1cccc(Nc2nc(Nc3ccc(OCCCn4ccnc4)cc3)ncc2[N+](=O)[O-])c1 | 6460 | 27400 |  | 39200 | 8320 | > 24.6 |  | 

Source: ChEMBL document CHEMBL3860065, “Synthesis and biological evaluation of azole-diphenylpyrimidine derivatives (AzDPPYs) as potent T790M mutant form of epidermal growth factor receptor inhibitors” (Bioorg Med Chem, 2016)
